Measured values: patent EP4129284B1, “SERTACONAZOL FOR PROVIDING A SPORISTATIC AND/OR SPORICIDAL EFFECT” (Dr. Pfleger Arzneimittel GmbH, priority 2021, dated 2023)
Values after ≈ are worked out from the molar mass of the structure shown.

Tests used:
Test in all cases: Microtiter plate laser nephelometry (MLN) growth test
Format in all cases: cell-based
[1] = tested on: Trichophyton soudanense DSM 103786; settings: DSM103786, T. soudanense; for MIC: plating of wells without visible growth in the MLN-test; for IC50: spore suspension in SGB, 37 °C, 120 h, growth as area under curve vs untreated control
Description: (§1) To allow a reasonable comparison between antimycotic drugs, the concentrations to be used in the following tests was determined first. Thus, the antimycotic effect was determined by microtiter plate laser nephelometry (MLN).
(§2) MLN is a direct method for measuring light, which is scattered by particles suspended in a solution in angles of up to 90 degree. With this technique, already minor particle concentrations can be determined in a suspension. Thus, this method provides a higher sensitivity than usual transmission readers, which detect the reduction of the intensity of light passing a suspension. Further, it is a very reliable technique for application in a 96-well format. It can be used to monitor the growth of microorganisms by the turbidity of the respective medium and to examine the effect of antimicrobial substances on the growth of microorganisms. Compared to other applied methods, MLN allows high throughput screenings, incubation over a long time and in situ monitoring of changes in the dose-response-curves.
(§3) Moreover, in most techniques, the minimum inhibitory concentration (MIC) can only be determined afterwards, whereas MLN allows the in situ acquisition of dose-response-curves and the simultaneous monitoring of changes in the IC50.
(§4) Candida albicans DSM 1386, Candida parapsilosis DSM 5784, Trichophyton rubrum DSM 16111,Trichophyton interdigitale IHEM 22939, Trichophyton soudanense DSM 103786, and Trichophyton mentagrophytes DSM 107608 were obtained from the DSMZ (German Collection of Microorganisms and Cell Cultures; Deutsche Sammlung von Mikroorganismen und Zellkulturen). Epidermophyton floccosum and Scorpolariopsis brevicaulis were obtained from a round robin test.
(§5) The yeasts were cultivated in Sabouraud-Glucose-Bouillon (SGB; Merck) for 24 h at 37°C at aerobic conditions. Dermatophytes were cultivated on Dermasel-Agarplates (Oxoid) for 3 weeks and subsequently treated with 5 mL sterile, physiological saline solution (Lot 14HD24, Fresenius Kabi Deutschland GmbH) for detaching the spores. The spore suspensions were transferred into sterile 50-ml-tubes (Greiner Bio-One), vortexed for 20 s and separated by cell sieves (40 µm, Greiner Bio-One). Subsequently, the spore number was determined via Neubauer-improved counting chambers and the spore suspension was adjusted to approximately 2 × 10^3/ml in SBG (Merck) for the MLN-experiments.
(§6) Solutions of sertaconazol, ciclopiroxolamin and terbinafin were prepared as 10 µg/µL DMSO (Sigma-Aldrich). The respective test concentrations were then obtained by diluting these solutions in SGB (Merck).
(§7) The MLN-test was then performed according to NCCLS M27-A2 and DIN EN 27027 as previously described (Burmester A, Hipler UC, Uhrlaß S, Nenoff P, Singal A, Verma SB, Elsner P, Wiegand C. Indian Trichophyton mentagrophytes squalene epoxidase erg1 double mutants show high proportion of combined fluconazole and terbinafine resistance. Mycoses. 2020; doi: 10.111 1/myc.13150). […] of the respective dilutions of sertaconazol, ciclopiroxolamin or terbinafin were added to the respective wells of a sterile, clear 96-well microplate (Greiner Bio-One) in quadruplicates together with 100 µL of the microorganism suspensions (as above). Blanks for each analysed substance concentration were added to each assay. The microtiter plates were sealed with a transparent foil (Greiner Bio-One). To allow the gas exchange, a perforation was applied to the right edge of the respective wells. The microtiter plates were then inserted in the microtiter plate laser nephelometer (NEPH-ELOstar Galaxy, BMG Labtech) and incubated at 37 °C while shaking for 48 h (yeasts) or, respectively, 120 h (mold, dermatophytes). For determining the growth of the microorganisms, the turbidity of each analysed substrate concentration was assigned to the incubation time. Subsequently, the area under curve was determined by the results and calculated as percentage of the untreated control (growth [%]). […]

[2] = tested on: Candida parapsilosis DSM 5784; settings: Lodderomyces parapsilosis, DSM5784; for IC50: C. parapsilosis (yeast), SGB, 37 °C, 48 h, growth as area under curve vs untreated control; for MIC: C. parapsilosis, plating of wells without visible growth in the MLN-test
Description: as §1, §2, §3, §4, §5, §6, §7

[3] = tested on: Trichophyton rubrum DSM 16111; settings: DSM16111, T. rubrum; for MIC: plating of wells without visible growth in the MLN-test; for IC50: spore suspension in SGB, 37 °C, 120 h, growth as area under curve vs untreated control
Description: as §1, §2, §3, §4, §5, §6, §7

[4] = tested on: Candida albicans DSM 1386; settings: for IC50: DSM1386, C. albicans (yeast), SGB, 37 °C, 48 h, growth as area under curve vs untreated control; for MIC: DSM1386, C. albicans, plating of wells without visible growth in the MLN-test
Description: as §1, §2, §3, §4, §5, §6, §7

[5] = tested on: S. brevicaulis; settings: Scopulariopsis brevicaulis; for IC50: S. brevicaulis (mold), SGB, 37 °C, 120 h, growth as area under curve vs untreated control; for MIC: S. brevicaulis, plating of wells without visible growth in the MLN-test
Description: as §1, §2, §3, §4, §5, §6, §7

[6] = tested on: Epidermophyton floccosum; settings: E. floccosum; for MIC: plating of wells without visible growth in the MLN-test; for IC50: spore suspension in SGB, 37 °C, 120 h, growth as area under curve vs untreated control
Description: as §1, §2, §3, §4, §5, §6, §7

[7] = tested on: Trichophyton mentagrophytes DSM 107608; settings: DSM107608, T. mentagrophytes; for MIC: plating of wells without visible growth in the MLN-test; for IC50: spore suspension in SGB, 37 °C, 120 h, growth as area under curve vs untreated control
Description: as §1, §2, §3, §4, §5, §6, §7

[8] = tested on: Trichophyton interdigitale IHEM 22939; settings: IHEM22939, T. interdigitale; for MIC: plating of wells without visible growth in the MLN-test; for IC50: spore suspension in SGB, 37 °C, 120 h, growth as area under curve vs untreated control
Description: as §1, §2, §3, §4, §5, §6, §7

MIC [1] [µg/mL]	IC50 [1] [µg/mL]	IC50 [2] [µg/mL]	MIC [2] [µg/mL]	MIC [3] [µg/mL]	IC50 [3] [µg/mL]	IC50 [4] [µg/mL]	MIC [4] [µg/mL]	IC50 [5] [µg/mL]	MIC [5] [µg/mL]	MIC [6] [µg/mL]	IC50 [6] [µg/mL]	MIC [7] [µg/mL]	IC50 [7] [µg/mL]	MIC [8] [µg/mL]	IC50 [8] [µg/mL]	Structure (SMILES)
5.5 (≈ 26.5 µM)	1.43 ± 0.78 (≈ 6.9 µM)	4.73 ± 0.09 (≈ 22.8 µM)	80 (≈ 386 µM)	10 (≈ 48.2 µM)	1.02 ± 0.22 (≈ 4.92 µM)	4.01 ± 0.71 (≈ 19.3 µM)	40 (≈ 193 µM)	4.85 ± 1.79 (≈ 23.4 µM)	60 (≈ 289 µM)	7.5 (≈ 36.2 µM)	1.46 ± 0.22 (≈ 7.04 µM)	10 (≈ 48.2 µM)	2.09 ± 0.78 (≈ 10.1 µM)	10 (≈ 48.2 µM)	2.62 ± 0.62 (≈ 12.6 µM)	Cc1cc(C2CCCCC2)n(O)c(=O)c1 [Ciclopiroxolamin, ciclopiroxolamin]
3.1 (≈ 7.08 µM)	0.0014 ± 0.0001 (≈ 0.0032 µM)	0.0025 ± 0.0001 (≈ 0.00571 µM)	20 (≈ 45.7 µM)	1.3 (≈ 2.97 µM)	0.0028 ± 0.0003 (≈ 0.0064 µM)	0.54 ± 0.12 (≈ 1.23 µM)	40 (≈ 91.4 µM)	0.11 ± 0.03 (≈ 0.251 µM)	7.5 (≈ 17.1 µM)	1.6 (≈ 3.65 µM)	0.022 ± 0.003 (≈ 0.0503 µM)	3.8 (≈ 8.68 µM)	0.018 ± 0.003 (≈ 0.0411 µM)	12.5 (≈ 28.6 µM)	0.39 ± 0.01 (≈ 0.891 µM)	Clc1ccc(C(Cn2ccnc2)OCc2csc3c(Cl)cccc23)c(Cl)c1 (centres unmarked) [Sertaconazol, sertaconazol]
0.015 (≈ 0.0515 µM)	0.0016 ± 0.0005 (≈ 0.00549 µM)	0.098 ± 0.002 (≈ 0.336 µM)	3.8 (≈ 13 µM)	0.006 (≈ 0.0206 µM)	0.0015 ± 0.0002 (≈ 0.00515 µM)	24.2 ± 2.99 (≈ 82.9 µM)	–	0.69 ± 0.03 (≈ 2.37 µM)	40 (≈ 137 µM)	0.02 (≈ 0.0686 µM)	0.0021 ± 0.0001 (≈ 0.00721 µM)	20 (≈ 68.6 µM)	4.66 ± 0.04 (≈ 16 µM)	0.02 (≈ 0.0686 µM)	0.0038 ± 0.0008 (≈ 0.013 µM)	CN(C/C=C/C#CC(C)(C)C)Cc1cccc2ccccc12 [Terbinafin, terbinafin]
